# Non-standard residues stand in square brackets, D forms with d. Residues, ends and D or L forms follow the SMILES beside them. *: point of attachment. Palmitoyl = CCCCCCCCCCCCCCCC(=O)*
# System: E. coli
# Assay: not given
# Settings: MIC values were reported previously; cited from earlier work
# From the text: Table 1 Antimicrobial, Cytotoxic, and Selectivity Index Activities of Lipopeptides ^a | column: MIC (μg/mL) / E. coli
row,Structure (SMILES),MIC E. coli
1,CCCCCCCCCCCCCCCC(=O)N[C@@H](Cc1c[nH]c2ccccc12)C(=O)N[C@H](CCCCN)C(=O)N[C@H](CCCCN)C(N)=O [P2D] (Palmitoyl-Trp-[dK]-[dK]-NH2),31.25 to 62.5 µg/mL
2,CCCCCCCCCCCCCCCC(=O)N[C@@H](Cc1c[nH]c2ccccc12)C(=O)N[C@@H](CCCCN)C(=O)N[C@@H](CCCCN)C(N)=O [P2] (Palmitoyl-Trp-Lys-Lys-NH2),15.63 to 62.5 µg/mL

# System: Salmonella enterica NCTC 5188
# Assay: Minimum bactericidal concentration (MBC)
# Type: cell-based
# Settings: 5 × 10^6 CFU/mL in MHB, lipopeptide 0-1000 μg/mL, 18 h at 37 °C, 10 μL spot-inoculated onto LB agar, overnight 37 °C
# Protocol: (§1) Two Gram-negative strains (Escherichia coli K12 and Salmonella enterica NCTC 5188) and one Gram-positive strain (Staphylococcus aureus ATCC 12600) were employed to evaluate the potential bactericidal activity of tested lipopeptides. A single colony from each strain, pre-streaked onto an LB (lysogeny broth) agar plate, was inoculated into 5 mL of LB broth and incubated at 37 °C with shaking (250 rpm) for 18 h. Then, the bacterial culture was adjusted to 5 × 10^6 CFU mL^–1 mid-log phase in Mueller-Hinton broth (MHB), and aliquots were transferred to individual wells of a U-bottom 96-well microplate with increasing concentrations of lipopeptides (0–1000 μg mL^–1). Included positive and negative controls consisted of 0.97 μg mL^–1 ciprofloxacin or 1× PBS in MHB, respectively. After 18 h of incubation at 37 °C, 10 μL from each well was spot-inoculated onto LB agar and plates were further incubated at 37 °C overnight to assess the MBC which refers to the lowest concentration of an antibacterial agent required to kill bacteria (here denoted by colony growth on the plate).
# (§2) Figure 9 Determination of MBC of lipopeptides P1, P1D, P2, and P2D. 10 μL aliquots from broth microdilution plates were spot-inoculated onto LB agar plates. The MBC refers to the lowest concentration of an antibacterial agent required to completely kill bacteria shown by the lack of colony formation. […] Positive control (+) 0.97 μg mL^–1 ciprofloxacin; negative control (−) 1X PBS.
row,Structure (SMILES),MBC S. enterica
1,CCCCCCCCCCCCCCCC(=O)N[C@@H](Cc1c[nH]c2ccccc12)C(=O)N[C@H](CCCCN)C(=O)N[C@H](CCCCN)C(N)=O [P2D] (Palmitoyl-Trp-[dK]-[dK]-NH2),125 µg/mL
2,CCCCCCCCCCCCCCCC(=O)N[C@@H](Cc1c[nH]c2ccccc12)C(=O)N[C@@H](CCCCN)C(=O)N[C@@H](CCCCN)C(N)=O [P2] (Palmitoyl-Trp-Lys-Lys-NH2),250 µg/mL

# System: not listed separately
# Assay: Critical aggregation concentration (CAC) by Thioflavin T fluorescence
# Type: physicochemical
# Settings: ThT fluorescence probe (5 × 10^–4 wt % ThT), aqueous solution pH 8, 25 °C, λex 440 nm, emission 487 nm, breakpoint of I/I0 versus concentration
# Protocol: For the fluorescence experiments, a Varian Cary Eclipse spectrofluorometer was used, and the samples were placed in 4 mm inner-width quartz cuvettes. For experimental settings, excitation and emission bandwidths of 2.5 nm were used. All the experiments were carried out at 25 °C. The CAC value for all the samples was determined by fluorescence experiments with Thioflavin T (ThT). ThT is well known to bind to amyloid fibrils, and can be used to determine CAC values.[44]−[46] First a stock solution (5 × 10^–4 wt %) ThT solution was prepared and using this solution, various concentrations of samples were prepared. The scan of the fluorescence spectra (λex = 440 nm) was taken from 460 to 670 nm.
# The CAC value of the samples was calculated by plotting I/I0 versus concentration (in wt %). Here I0 is the maximum intensity for the control, i.e., ThT solution without the sample, and I signifies the maximum fluorescence intensity of ThT at a given concentration of lipopeptide.
# To determine the CAC values of these lipopeptides, fluorescence probe assays using Thioflavin T (ThT) were performed, this dye being sensitive to the formation of β-sheet structures.[44]−[46] Emission spectra of the four lipopeptides were collected at different concentrations after excitation at 440 nm. At higher concentrations, an emission peak at 487 nm is visible. […] The lower CAC values for P2 and P2D are due to the higher hydrophobicity of tryptophan compared to tyrosine. […] However, since aggregation at the two different pH values gives rise to distinct nanostructures, this may be coincidental.
row,Structure (SMILES),CAC (critical aggregation concentration)
1,CCCCCCCCCCCCCCCC(=O)N[C@@H](Cc1c[nH]c2ccccc12)C(=O)N[C@H](CCCCN)C(=O)N[C@H](CCCCN)C(N)=O [P2D] (Palmitoyl-Trp-[dK]-[dK]-NH2),0.026 ± 0.004 wt %
2,CCCCCCCCCCCCCCCC(=O)N[C@@H](Cc1c[nH]c2ccccc12)C(=O)N[C@@H](CCCCN)C(=O)N[C@@H](CCCCN)C(N)=O [P2] (Palmitoyl-Trp-Lys-Lys-NH2),0.026 ± 0.004 wt %

# System: S. enterica
# Assay: not given
# Settings: MIC values were reported previously; cited from earlier work
# From the text: Table 1 Antimicrobial, Cytotoxic, and Selectivity Index Activities of Lipopeptides ^a | column: MIC (μg/mL) / S. enterica
row,Structure (SMILES),MIC S. enterica
1,CCCCCCCCCCCCCCCC(=O)N[C@@H](Cc1c[nH]c2ccccc12)C(=O)N[C@H](CCCCN)C(=O)N[C@H](CCCCN)C(N)=O [P2D] (Palmitoyl-Trp-[dK]-[dK]-NH2),62.5 µg/mL
2,CCCCCCCCCCCCCCCC(=O)N[C@@H](Cc1c[nH]c2ccccc12)C(=O)N[C@@H](CCCCN)C(=O)N[C@@H](CCCCN)C(N)=O [P2] (Palmitoyl-Trp-Lys-Lys-NH2),62.5 to 250 µg/mL

# System: E. coli
# Assay: Live/Dead staining, membrane integrity (epifluorescence)
# Type: cell-based
# Settings: two-fold MIC of lipopeptide, 1 h at 37 °C, compared to P1 and P1D
# From the text: A bacteria Live/Dead staining kit (PromoKine) was employed to gain insight into the possible membrane disruption activity of tested lipopeptides. In summary, we used two color fluorescence dyes with varying ability to cross the cytoplasmatic membranes of bacteria. DMAO is a green-fluorescent nucleic acid dye which stains the cell membranes of both live and dead bacteria, while the red fluorescing EthD-III dye selectively stains dead bacteria with compromised membranes. With appropriately calculated volumes of dyes, live viable bacterial cells fluoresce green whilst dead compromised cells fluoresce red. For this assessment, a total of 5 × 10^6 mL^–1 exponential phase bacterial cells were incubated with two-fold MIC of lipopeptides for 1 h at 37 °C. Negative and positive controls consisted respectively of the addition of PBS and Triton-X100 (1%) to replace lipopeptides. Afterwards, the sample was centrifuged at 1000g for 10 min. The pellet was resuspended in 100 μL of 0.85% buffered NaCl with the epifluorescence dyes, following the kit instructions, and incubated for 15 min at room temperature. The samples were examined under a Nikon Eclipse Ti2 inverted microscope.
# Figure 10 Membrane permeabilization of E. coli (A) and S. aureus (B) was observed through epifluorescence microscopy. […]
row,Structure (SMILES),"formation of bacterial cell aggregates, E. coli"
1,CCCCCCCCCCCCCCCC(=O)N[C@@H](Cc1c[nH]c2ccccc12)C(=O)N[C@H](CCCCN)C(=O)N[C@H](CCCCN)C(N)=O [P2D] (Palmitoyl-Trp-[dK]-[dK]-NH2),cell aggregates (clusters) was observed
2,CCCCCCCCCCCCCCCC(=O)N[C@@H](Cc1c[nH]c2ccccc12)C(=O)N[C@@H](CCCCN)C(=O)N[C@@H](CCCCN)C(N)=O [P2] (Palmitoyl-Trp-Lys-Lys-NH2),cell aggregates (clusters) was observed

# System: Staphylococcus aureus ATCC 12600
# Assay: not given
# Type: cell-based
# Settings: ATCC 12600, 18 h
# Protocol: as §1, §2
row,Structure (SMILES),MBC S. aureus
1,CCCCCCCCCCCCCCCC(=O)N[C@@H](Cc1c[nH]c2ccccc12)C(=O)N[C@H](CCCCN)C(=O)N[C@H](CCCCN)C(N)=O [P2D] (Palmitoyl-Trp-[dK]-[dK]-NH2),62.5 µg/mL
2,CCCCCCCCCCCCCCCC(=O)N[C@@H](Cc1c[nH]c2ccccc12)C(=O)N[C@@H](CCCCN)C(=O)N[C@@H](CCCCN)C(N)=O [P2] (Palmitoyl-Trp-Lys-Lys-NH2),250 µg/mL

# System: Escherichia coli K12
# Assay: not given
# Type: cell-based
# Settings: K12, 18 h
# Protocol: as §1, §2
row,Structure (SMILES),MBC E. coli
1,CCCCCCCCCCCCCCCC(=O)N[C@@H](Cc1c[nH]c2ccccc12)C(=O)N[C@H](CCCCN)C(=O)N[C@H](CCCCN)C(N)=O [P2D] (Palmitoyl-Trp-[dK]-[dK]-NH2),62.5 µg/mL
2,CCCCCCCCCCCCCCCC(=O)N[C@@H](Cc1c[nH]c2ccccc12)C(=O)N[C@@H](CCCCN)C(=O)N[C@@H](CCCCN)C(N)=O [P2] (Palmitoyl-Trp-Lys-Lys-NH2),250 µg/mL

# System: not listed separately
# Assay: Cryo-TEM imaging of self-assembled nanostructures
# Type: physicochemical
# Settings: 1 wt % aqueous solution, pH 8
# Protocol: The Cryo-TEM imaging was performed using a field emission cryo-electron microscope (JEOL JEM-3200FSC), operating at 200 kV. To take the TEM images bright field mode with a zero-loss energy filter (omega type) was used, with a slit width of 20 eV. A Gatan UltraScan 4000 CCD camera was used to record the micrographs. During the entire experiment, the sample was kept at −187 °C. An automated FEI Vitrobot device was used to blot and vitrify samples on Quantifoil 3.5:1 holey carbon copper grids with a hole size of 3.5 μm. Before taking the images, grids were first plasma cleaned using a Gatan Solarus 9500 plasma cleaner, followed by transferring to the environmental chamber of a FEI Vitrobot at room temperature and 100% humidity. For sample spotting on the grid, 3 μL of sample solution was taken and spread on the grid. It was blotted twice and then vitrified in a 1:1 mixture of liquid ethane and propane at a temperature of −180 °C. The grids with vitrified sample solution were maintained at liquid nitrogen temperature and then cryo-transferred to the microscope.
# The self-assembled nanostructure of these lipopeptides at acidic pH was investigated at the lower pH of 4.6 in our recent paper,[43] and here we report the unexpected observation of distinct self-assembled nanostructure of these lipopeptides at a higher pH. For cryo-TEM imaging at basic pH, 1 wt % aqueous solution of lipopeptides at pH 8 were prepared, this concentration being above the measured CAC values for these lipopeptides. […] In contrast, the TEM images of all the lipopeptides at pH 4.6 show small spherical micelles with a mean diameter of 4–9 nm (as reported previously,[43] with additional images in Figure S5).
Structure (SMILES),mean diameter of nanostructure (cryo-TEM),self-assembled nanostructure (cryo-TEM)
CCCCCCCCCCCCCCCC(=O)N[C@@H](Cc1c[nH]c2ccccc12)C(=O)N[C@H](CCCCN)C(=O)N[C@H](CCCCN)C(N)=O [P2D] (Palmitoyl-Trp-[dK]-[dK]-NH2),32.8 ± 4.5 nm,nanotube structures
CCCCCCCCCCCCCCCC(=O)N[C@@H](Cc1c[nH]c2ccccc12)C(=O)N[C@@H](CCCCN)C(=O)N[C@@H](CCCCN)C(N)=O [P2] (Palmitoyl-Trp-Lys-Lys-NH2),6.4 ± 2 nm,long intertwined nanofibers

# System: S. aureus
# Assay: not given
# Settings: MIC values were reported previously; cited from earlier work
# From the text: Table 1 Antimicrobial, Cytotoxic, and Selectivity Index Activities of Lipopeptides ^a | column: MIC (μg/mL) / S. aureus
row,Structure (SMILES),MIC S. aureus
1,CCCCCCCCCCCCCCCC(=O)N[C@@H](Cc1c[nH]c2ccccc12)C(=O)N[C@H](CCCCN)C(=O)N[C@H](CCCCN)C(N)=O [P2D] (Palmitoyl-Trp-[dK]-[dK]-NH2),31.25 to 62.5 µg/mL
2,CCCCCCCCCCCCCCCC(=O)N[C@@H](Cc1c[nH]c2ccccc12)C(=O)N[C@@H](CCCCN)C(=O)N[C@@H](CCCCN)C(N)=O [P2] (Palmitoyl-Trp-Lys-Lys-NH2),31.25 to 62.5 µg/mL
